In EP4692089A1, “NITROGEN-CONTAINING HETEROCYCLIC COMPOUND AS AAK1 INHIBITOR” (Alicorn Pharmaceutical Co., Ltd., priority 2023, dated 2024):
Counter-ions that a name gives are not always drawn.

Experiments:
[1] = target: T1, AAK1 (30-330) protein (Homo sapiens, UniProt Q2M2I8); experiment: AAK1 kinase assay (ADP generated, detected by HPLC); type: biochemical; details: 3.5 nM AAK1, 22 µM ATP, 25°C, 3 h
T1 construct: (His)6x (N); TEV protease cleavage site (N); made in house; host or cells: Escherichia coli BL21(DE3)
T1 sequence (Q2M2I8 30-330): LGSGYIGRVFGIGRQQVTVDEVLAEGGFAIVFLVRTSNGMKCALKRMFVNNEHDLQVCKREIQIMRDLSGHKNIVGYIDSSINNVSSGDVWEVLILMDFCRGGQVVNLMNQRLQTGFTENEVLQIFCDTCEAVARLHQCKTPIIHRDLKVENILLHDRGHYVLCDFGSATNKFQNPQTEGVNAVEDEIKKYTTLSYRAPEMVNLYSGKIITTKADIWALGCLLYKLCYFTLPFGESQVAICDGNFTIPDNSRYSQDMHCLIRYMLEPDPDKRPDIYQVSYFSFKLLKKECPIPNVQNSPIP
Source text: Experimental objective: The objective of this test example is to test the effect of compounds on AAK1 kinase function.
Background principle: AAK1 phosphorylates the threonine residue in the micro-subunit of AP2 (AP2M1). In this process, ATP provides phosphate groups to generate ADP. Therefore, the activity of AAK1 kinase can be evaluated by detecting the amount of ADP generated.
(§1) Expression of AAK1 (30-330) protein: The AAK1 sequence (residues 30-330) was cloned into the pET24N vector with an N-terminal (His)6x tag and a tobacco etch virus (TEV) protease cleavage site. The constructed vector was transformed into Escherichia coli BL21(DE3). When the bacteria were cultured with shaking to reach an OD value of 0.6, 1 mM IPTG was added. […] The bacterial cells were collected and subjected to ultrasonic disruption. The supernatant was obtained by centrifugation, and the protein was purified using Ni-NTA. After dialysis, the concentration and purity of the protein were determined.
The reaction mixture was incubated in a metal bath at 25°C for 3 h. The reaction was terminated by adding 1% SDS, and the amount of ADP generated was detected by HPLC. IC50 values were calculated using GraphPad software.

[2] = target: T1, AAK1 (30-330) protein; experiment: CETSA test of binding ability to AAK1 protein (Western blot)
Method: Experimental objective: To detect the binding ability of compounds to AAK1 protein by means of a CETSA experiment.
Background principle: The CETSA experiment is a molecular detection means for measuring the affinity between drugs and target proteins. […] When a candidate drug is co-incubated with a target protein, if the candidate drug is an inhibitor of AAK1, it can bind to AAK1. […] On the contrary, the stability of the AAK1 protein after heating will be poorer, and the amount of the detected protein will be lower. In this way, the binding ability of the drug to the target protein can be evaluated, which is used for the screening of AAK1 protein inhibitors.
as §1
CETSA sample preparation: Samples were incubated with candidate drugs, control drugs, and control reagents separately for 30 minutes. Each group of samples was heated at approximately 10 pre-set temperature points. After being returned to room temperature, the samples were centrifuged at 20000 g, and the supernatants were collected. Protein samples were denatured by heating at 100°C for 10 minutes with a sample buffer. After the samples were returned to room temperature, Western blot detection was performed on them; the protein loading amount was controlled at 20 µg. […] The same operations were followed, and Western blot detection was conducted. Protein electrophoresis: The voltage for the stacking gel was set at 60 V, and that for the separating gel was set at 120 V. After electrophoresis, electrotransfer was initiated. Electrotransfer conditions were set at 250 mA for 2 h. Blocking with 5% BSA was performed for 1 h. A specific primary antibody was added, and incubation was carried out overnight at 4°C on a shaker. Washing with TBST was conducted 4 times, with 2.5 minutes each time. A secondary antibody was incubated on a shaker at room temperature for 1 h. Washing with TBST was conducted 4 times, with 2.5 minutes each time. ECL was used for development to detect the expression levels of AAK1 protein in different groups and at each temperature point. Western blot bands were processed and converted using Image J and GraphPad software to calculate EC50.

[3] = target: T2, AAK1 (Homo sapiens, UniProt Q2M2I8); experiment: Effect on AP2M1 phosphorylation in 293T cells co-transfected with AAK1 and AP2M1 (Western blot, anti-p-AP2M1); type: cell-based; details: p-AP2M1 level, incubated 3 h
T2 construct: HA; expressed in transfected cells; host or cells: 293T cells
T2 sequence (Q2M2I8 whole entry): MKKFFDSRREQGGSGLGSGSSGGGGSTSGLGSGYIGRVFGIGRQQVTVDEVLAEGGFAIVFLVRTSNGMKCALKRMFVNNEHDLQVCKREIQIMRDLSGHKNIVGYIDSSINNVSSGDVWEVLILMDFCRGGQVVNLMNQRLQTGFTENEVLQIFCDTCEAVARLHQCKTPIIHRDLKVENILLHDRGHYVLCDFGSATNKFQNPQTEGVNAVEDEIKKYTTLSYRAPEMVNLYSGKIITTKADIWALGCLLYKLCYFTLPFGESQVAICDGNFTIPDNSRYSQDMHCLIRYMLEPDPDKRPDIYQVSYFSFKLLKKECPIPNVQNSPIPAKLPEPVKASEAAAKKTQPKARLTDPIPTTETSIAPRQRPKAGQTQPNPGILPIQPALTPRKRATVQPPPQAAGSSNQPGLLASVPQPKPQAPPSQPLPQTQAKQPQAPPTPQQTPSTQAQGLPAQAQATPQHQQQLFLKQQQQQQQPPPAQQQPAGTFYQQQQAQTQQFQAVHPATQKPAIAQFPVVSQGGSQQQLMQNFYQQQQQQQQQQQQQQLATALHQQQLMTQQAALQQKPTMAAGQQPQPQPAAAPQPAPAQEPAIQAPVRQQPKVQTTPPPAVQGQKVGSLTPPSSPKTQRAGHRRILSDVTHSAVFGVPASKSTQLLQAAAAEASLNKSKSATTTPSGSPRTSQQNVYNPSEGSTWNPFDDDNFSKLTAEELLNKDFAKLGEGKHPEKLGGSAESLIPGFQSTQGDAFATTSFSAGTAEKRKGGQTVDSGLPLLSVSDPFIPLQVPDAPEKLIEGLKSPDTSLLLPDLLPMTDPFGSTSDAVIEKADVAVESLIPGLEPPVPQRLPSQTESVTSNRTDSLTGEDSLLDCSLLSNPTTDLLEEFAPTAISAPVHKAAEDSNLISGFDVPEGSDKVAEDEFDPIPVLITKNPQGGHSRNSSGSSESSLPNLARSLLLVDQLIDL
Source text: Experimental objective: The objective of this test example is to determine the effect of compounds on AP2M1 phosphorylation in cells.
Background principle: Adaptor-associated kinase 1 (AAK1), also known as AP2-associated kinase 1, is a 104 kDa serine/threonine kinase. AAK1 interacts with the adaptor protein 2 (AP2) complex and phosphorylates the threonine residue in the micro-subunit of AP2 (AP2M1), thereby increasing its binding affinity for certain tyrosine-based or dileucine-based sorting signals of some membrane receptors. The inhibitory effect of compounds on AAK1 was evaluated by detecting the phosphorylation level of AP2M1 in cells, so as to screen candidate compounds.
On the second day, each T25 flask was co-transfected with 16 µg of plasmids (1 µg of AAK1/HA/pIRES and 15 µg of Flag/AP2MI/pcDNA) using a Lip2000 transfection reagent. On the third day, the cells were digested and resuspended, centrifuged at 1000 rpm for 5 minutes, and then seeded into 24-well plates at 450 µl per well (2 × 10^5 cells/well). Gradient dilutions of the compounds to be tested were prepared, 50 µl was added to each well, mixed thoroughly, and incubated at 37°C for 3 h. DMSO was set as a control, and cells without plasmid transfection were set as a blank control. After incubation, the cells were collected and washed twice with PBS. The cells were lysed on ice for 30 minutes using a cell lysis buffer containing the protease inhibitor PMSF. The concentration of protein samples was determined using a BCA kit. Protein electrophoresis: The voltage for the stacking gel was set at 60 V, and that for the separating gel was set at 120 V. After electrophoresis, electrotransfer was initiated. Electrotransfer conditions were set at 250 mA for 2 h. Blocking with 5% BSA was performed for 1 h. A specific primary antibody, anti-p-AP2M1, was added, and incubation was carried out overnight at 4°C on a shaker. Washing with TBST was conducted 4 times, with 2.5 minutes each time. A secondary antibody was incubated on a shaker at room temperature for 1 h. Washing with TBST was conducted 4 times, with 2.5 minutes each time. ECL was used for development to detect the expression level of p-AP2M1. Western blot bands were processed and converted using Image J and GraphPad software to calculate IC50.
IC50 (half maximal inhibitory concentration) refers to the half-inhibitory concentration of the measured antagonist. It can indicate the concentration of a certain drug or substance (inhibitor) that achieves half of the inhibition effect on certain biological processes (or certain substances involved in these processes, such as enzymes, cellular receptors, or microorganisms).

| Structure (SMILES) | IC50 [1] | EC50 [2] | IC50 [3] |
| --- | --- | --- | --- |
| CC(C)C[C@@](C)(N)COc1ccc(-c2ccnc3ccnn23)nc1C(F)F [Compound 1, (R)-1-{[2-(difluoromethyl)-6-(pyrazolo[1,5-a]pyrimidin-7-yl)pyridin-3-yl]oxy}-2,4-dimet hylpentan-2-amine] | 32.1 nM | 10 to 100 nM | 10 to 100 nM |
| CC(C)C[C@@](C)(N)COc1ccc(-c2c[nH]c3ncccc23)nc1C(F)F [Compound 2, (R)-1-{[2-(difluoromethyl)-6-(1H-pyrrolo[2,3-b]pyridin-3-yl)pyridin-3-yl]oxy}-2,4-dimet hylpentan-2-amine] | 28.3 nM | 10 to 100 nM | 10 to 100 nM |
| CC(C)C[C@](C)(N)COc1ccc(-c2c[nH]c3ncccc23)nc1C(F)F [Compound 3] | 21.2 nM | 10 to 100 nM | 10 to 100 nM |
| CC(C)C[C@](C)(N)COc1ccc(-c2c[nH]c3nc(C(F)(F)F)ccc23)nc1C(F)F [Compound 4] | 45.9 nM | 10 to 100 nM | 10 to 100 nM |
| CC(C)C[C@@](C)(N)COc1ccc(-c2c[nH]c3nc(C(F)(F)F)ccc23)nc1C(F)F [Compound 5] | 86.1 nM | 10 to 100 nM | 10 to 100 nM |
| CC(C)C[C@](C)(N)COc1ccc(-c2ccnc3[nH]cnc23)nc1C(F)F [Compound 6] | 75.2 nM | 10 to 100 nM | 10 to 100 nM |
| CC(C)C[C@@](C)(N)COc1ccc(-c2ccnc3[nH]cnc23)nc1C(F)F [Compound 7] | 101 nM | 100 to 1000 nM | 10 to 100 nM |
| CC(C)C[C@](C)(N)COc1ccc(-c2ccnc3[nH]c(C(F)(F)F)nc23)nc1C(F)F [Compound 8] | 129 nM | 10 to 100 nM | 10 to 100 nM |
| CC(C)C[C@@](C)(N)COc1ccc(-c2ccnc3[nH]c(C(F)(F)F)nc23)nc1C(F)F [Compound 9] | 99.2 nM | 10 to 100 nM | 10 to 100 nM |
| CC(C)C[C@](C)(N)COc1ccc(-c2ccnc3c2nc(C(F)(F)F)n3C)nc1C(F)F [Compound 10] | 152 nM | 10 to 100 nM | 10 to 100 nM |
| CC(C)C[C@@](C)(N)COc1ccc(-c2ccnc3c2nc(C(F)(F)F)n3C)nc1C(F)F [Compound 11] | 123 nM | 10 to 100 nM | 10 to 100 nM |
| CC(C)C[C@](C)(N)COc1ccc(-c2cncc3[nH]c(C(F)(F)F)nc23)nc1C(F)F [Compound 12] | 99.2 nM | 10 to 100 nM | 10 to 100 nM |
| CC(C)C[C@@](C)(N)COc1ccc(-c2cncc3[nH]c(C(F)(F)F)nc23)nc1C(F)F [Compound 13] | 168 nM | 10 to 100 nM | 10 to 100 nM |
| CC(C)C[C@](C)(N)COc1ccc(-c2c[nH]c3nc(F)ccc23)nc1C(F)F [Compound 14] | 102 nM | 10 to 100 nM | 10 to 100 nM |
| CC(C)C[C@@](C)(N)COc1ccc(-c2c[nH]c3nc(F)ccc23)nc1C(F)F [Compound 15] | 111 nM | 10 to 100 nM | 10 to 100 nM |
| COc1ccnc2[nH]cc(-c3ccc(OC[C@@](C)(N)CC(C)C)c(C(F)F)n3)c12 [Compound 16, (S)-1-{[2-(difluoromethyl)-6-(4-methoxy-1H-pyrrolo[2,3-b]pyridin-3-yl)pyridin-3-yl]oxy}-2,4-dimethylpentan-2-amine tris(trifluoroacetate)] | 87.2 nM | 10 to 100 nM | 10 to 100 nM |
| COc1ccnc2[nH]cc(-c3ccc(OC[C@](C)(N)CC(C)C)c(C(F)F)n3)c12 [Compound 17, (R)-1-{[2-(difluoromethyl)-6-(4-methoxy-1H-pyrrolo[2,3-b]pyridin-3-yl)pyridin-3-yl]oxy}-2,4-dimethylpentan-2-amine] | 56.9 nM | 10 to 100 nM | 100 to 1000 nM |
| CC(C)C[C@](C)(N)COc1ccc(-c2ccnc3c(F)cnn23)nc1C(F)F [Compound 18] | 42.5 nM | 10 to 100 nM | 10 to 100 nM |
| CC(C)C[C@@](C)(N)COc1ccc(-c2ccnc3c(F)cnn23)nc1C(F)F [Compound 19] | 87.3 nM | 10 to 100 nM | 10 to 100 nM |
| Cc1nc2ccnn2c(-c2ccc(OC[C@@](C)(N)CC(C)C)c(C(F)F)n2)c1F [Compound 20] | 102 nM | 10 to 100 nM | 10 to 100 nM |
| Cc1nc2ccnn2c(-c2ccc(OC[C@](C)(N)CC(C)C)c(C(F)F)n2)c1F [Compound 21] | 190 nM | 100 to 1000 nM | 10 to 100 nM |
| CC(C)C[C@](C)(N)COc1ccc(-c2ccnc3c(C(=O)O)cnn23)nc1C1CC1 [Compound 22] | 170 nM | 100 to 1000 nM | 10 to 100 nM |
| CC(C)C[C@](C)(N)COc1ccc(-c2c[nH]c3ncc(C#N)cc23)nc1C(F)F [Compound 27] | 57.8 nM | 10 to 100 nM | 100 to 1000 nM |
| CC(C)C[C@](C)(N)COc1ccc(-c2c[nH]c3ncc(C(F)F)cc23)nc1C(F)F [Compound 28, (S)-1-{[2-(difluoromethyl)-6-[5-(difluoromethyl)-1H-pyrrolo[2,3-b]pyridin-3-yl]pyridin-3-yl]oxy}-2,4-dimethylpentan-2-amine formate] | 65.3 nM | 10 to 100 nM | 10 to 100 nM |
